From patent US5665777A, “Biphenyl hydroxamate inhibitors of matrix metalloproteinases” (Abbott Laboratories, priority 1995, dated 1997)

Assays:
TNFα secretion = assay: HL-60 TNFα Release Assay (inhibition of TNFα secretion, ELISA); format: cell-based; details: Homo sapiens, HL-60 cells, 40 nM phorbol myristate acetate, 20 hr at 37° C.
Description: The inhibition of TNFα secretion by the compounds of this invention was determined using a HL-60 TNFα Release Assay. HL-60 cells were cultured in RPMI 1640 with 10% fetal bovine serum and penicillin/streptomycin. HL-60 cells (150,000 cells/well) were placed in 96 well culture plates in RPMI 1640 with 10% fetal bovine serum and pen/strep containing 40 nM phorbol myristate acetate and test compound in DMSO (final DMSO 0.1%). HL-60 cells were then cultured for 20 hr at 37° C. (95% humidity) after which cell supernatants were collected for analysis of TNFα by ELISA.

stromelysin = biological target: T1, stromelysin (Homo sapiens, UniProt P08254); assay: Determination of stromelysin inhibition (cleavage of thiopeptide ester substrate, DTNB readout); format: biochemical; details: for IC50: recombinant truncated human stromelysin, pH 6.5, 30 min, ambient temperature, read-out: IC50, inhibitory potency against stromelysin
T1 construct: made in house; host or cells: E. coli
Description: The inhibition of stromelysin by the compounds of this invention was determined as follows: Recombinant truncated stromelysin (human sequence) produced in E. coli was prepared by expression and purification of the protein as described by Ye et al., Biochemistry, 1992, 31, 11231-11235. The enzyme was assayed by its cleavage of the thiopeptide ester substrate Ac-Pro-Leu-Gly-[2-mercapto-4-methyl-pentanoyl]-Leu-Gly-OEt described by Weingarten and Feder, Anal Biochem., 1985, 147, 437-440 (1985), as a substrate of vertebrate collagenase. The reported conditions were modified to allow assays to be carried out in a microtiter plate. Upon hydrolysis of the thioester bond, the released thiol group reacts rapidly with 5,5'-dithio-bis(2-nitrobenzoic acid) (DTNB), producing a yellow color which is measured by a microtiter plate reader set al 405 nm. The rates of cleavage of the substrate by stromelysin in the presence or absence of inhibitors are measured in a 30 min assay at ambient temperature. Solutions of the compounds in DMSO are prepared, and these are diluted at various concentrations into the assay buffer (50 mM MES/NaOH pH 6.5 with 10 mM CaCl2 and 0.2% Pluronic F-68), which is also used for dilution of the enzyme and substrate. The potency of the compounds [IC50 ] are calculated from the inhibition/inhibitor concentration data.

T1 sequence (P08254 100-273 limits assumed): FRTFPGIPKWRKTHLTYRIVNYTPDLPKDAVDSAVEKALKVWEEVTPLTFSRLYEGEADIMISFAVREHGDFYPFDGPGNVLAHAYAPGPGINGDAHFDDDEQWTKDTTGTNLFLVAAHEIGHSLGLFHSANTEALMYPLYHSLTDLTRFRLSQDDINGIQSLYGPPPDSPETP

Row | Structure (SMILES) | IC50 (stromelysin) [nM] | inhibition at 16 µM (TNFα secretion) [%] | further results
1 | O=C(CCCOc1ccc(-c2ccccc2)cc1)NO [Example 1, 4-(4-phenylphenoxy)butanohydroxamic acid] |  | 27 | 
2 | O=C(CCCOc1cccc(-c2ccccc2)c1)NO [Example 2, 4-(3-phenylphenoxy)butanohydroxamic acid] |  |  | inhibition at 100 µM (stromelysin): 5%
3 | N#Cc1ccc(-c2ccc(OCCCC(=O)NO)cc2)cc1 [Example 3, 4-[4-(4-cyanophenyl)phenoxy]butanohydroxamic acid] | 3500 |  | 
4 | N#Cc1cccc(-c2ccc(OCCCC(=O)NO)cc2)c1 [Example 4, 4-[4-(3-cyanophenyl)phenoxy]butanohydroxamic acid] | 46000 | 64 | 
5 | N#CCc1ccc(-c2ccc(OCCCC(=O)NO)cc2)cc1 [Example 5, 4-[4-(4-cyanomethylphenyl)phenoxy]butanohydroxamic acid] | 21000 | 82 | 
6 | N#CCc1cccc(-c2ccc(OCCCC(=O)NO)cc2)c1 [Example 6, 4-[4-(3-cyanomethylphenyl)phenoxy]butanohydroxamic acid] | 1900 | 40 | 
7 | O=C(CCCOc1ccc(-c2ccc(Cl)cc2)cc1)NO [Example 7, 4-[4-(4-chlorophenyl)phenoxy]butanohydroxamic acid] |  | 35 | inhibition at 100 µM (stromelysin): 47%
8 | CCCc1ccc(-c2ccc(OCCCC(=O)NO)cc2)cc1 [Example 8, 4-[4-(4-propylphenyl)phenoxy]butanohydroxamic acid] | 10000 | 35 | 
9 | COc1ccc(-c2ccc(OCCCC(=O)NO)cc2)cc1 [Example 9, 4-[4-(4-methoxyphenyl)phenoxy]butanohydroxamic acid] | 34000 |  | 
10 | O=C(CCCCCCOc1ccc(-c2ccccc2)cc1)NO [Example 10, 7-(4-phenylphenoxy)heptanohydroxamic acid] |  |  | inhibition at 100 µM (stromelysin): 45%
11 | N#Cc1ccc(-c2ccc(OCCCCCCC(=O)NO)cc2)cc1 [Example 11, 7-[4-(4-cyanophenyl)phenoxy]heptanohydroxamic acid] | 2300 | 77 | 
12 | O=C(CCCCOc1cccc(-c2ccc(F)cc2)c1)NO [Example 12, 5-[3-(4-fluorophenyl)phenoxy]pentanohydroxamic acid] |  | 62 | inhibition at 100 µM (stromelysin): 20%
13 | N#Cc1cccc(-c2cccc(OCCCCC(=O)NO)c2)c1 [Example 13, 5-[3-(3-cyanophenyl)phenoxy]pentanohydroxamic acid] |  | 67 | inhibition at 100 µM (stromelysin): 24%
14 | N#Cc1ccc(-c2cccc(OCCCCC(=O)NO)c2)cc1 [Example 14, 5-[3-(4-cyanophenyl)phenoxy]pentanohydroxamic acid] | 123000 | 64 | 
15 | O=C(CCCOc1cccc(-c2ccc(F)cc2)c1)NO [Example 15, 4-[3-(4-fluorophenyl)phenoxy]butanohydroxamic acid] | 74000 | 63 | 
16 | N#Cc1ccc(-c2cccc(OCCCC(=O)NO)c2)cc1 [Example 16, 4-[3-(4-cyanophenyl)phenoxy]butanohydroxamic acid] | 24000 |  | 

Row | Structure (SMILES) | IC50 (stromelysin) [nM] | inhibition at 16 µM (TNFα secretion) [%] | further results
17 | N#Cc1cccc(-c2cccc(OCCCC(=O)NO)c2)c1 [Example 17, 4-[3-(3-cyanophenyl)phenoxy]butanohydroxamic acid] | 2500 |  | 
18 | O=C(CCCCOc1ccc(-c2ccccc2)cc1)NO [Example 19, 5-[4-phenylphenoxy]pentanohydroxamic acid] |  | 61 | 
19 | N#Cc1ccc(-c2ccc(OCCCCC(=O)NO)cc2)cc1 [Example 20, 5-[4-(4-cyanophenyl)phenoxy]pentanohydroxamic acid] |  | 50 | 
20 | O=C(CCOc1cccc(-c2ccccc2)c1)NO [Example 24, 3-(3-phenylphenoxy)propanohydroxamic acid] |  | 59 | inhibition at 10 µM (stromelysin; @ 10 μM): 14%
21 | COc1ccc(-c2ccc(OCCC(=O)NO)cc2)cc1 [Example 26, 3-[4-(4-methoxyphenyl)phenoxy]propanohydroxamic acid] | 79 |  | 
22 | O=C(CCOc1ccc(-c2ccc(F)cc2)cc1)NO [Example 27, 3-[4-(4-fluorophenyl)phenoxy]propanohydroxamic acid] | 190 |  | 
23 | CNC(=O)C(CCOc1ccc(-c2ccc(C#N)cc2)cc1)CC(=O)NO (stereo not shown) [Example 29, 3-(N-methylcarboxamido)-5-[4-(4-cyanophenyl)phenoxy]pentanohydroxamic acid] | 350 |  | 
24 | O=C(Cc1ccc(-c2ccccc2)cc1)NO [Example 33, 2-(4-biphenyl)ethanohydroxamic acid] |  |  | inhibition at 100 µM (stromelysin): 14%
25 | N#Cc1ccc(-c2ccc(CCCC(=O)NO)cc2)cc1 [Example 35, 4-[4-(4-cyanophenyl)phenyl]butanohydroxamic acid] | 8300 |  | 
26 | O=C(CCCCOc1ccc(-c2ccc(F)cc2)cc1)NO [Example 39, 5-[4-(4-fluorophenyl)phenoxy]pentanohydroxamic acid] |  |  | inhibition at 100 µM (stromelysin): 47%
27 | O=C(CCCOc1ccc(-c2ccccc2)cc1O)NO [Example 40, 4-(2-hydroxy-4-phenylphenoxy)butanohydroxamic acid] |  |  | inhibition at 100 µM (stromelysin): 39%
28 | O=C(CCCOc1cc(-c2ccccc2)ccc1O)NO [Example 41, 4-(2-hydroxy-5-phenylphenoxy)butanohydroxamic acid] |  |  | inhibition at 100 µM (stromelysin): 36%
29 | N#CCc1cccc(-c2ccc(OCCC(=O)NO)cc2)c1 [Example 42, 3-[4-(3-cyanomethylphenyl)phenoxy]propanohydroxamic acid] | 15 |  | 
30 | CC(C)(C)OC(=O)CC(CCOc1ccc(-c2ccc(C#N)cc2)cc1)C(=O)NO (stereo not shown) [Example 43, 2-tert-butyloxycarbonylmethyl-4-[4-(4-cyanophenyl)phenoxy]butanohydroxamic acid] | 490 |  | 
31 | N#CCc1ccc(-c2ccc(OCCC(=O)NO)cc2)cc1 [Example 44, 3-[4-(4-cyanomethylphenyl)phenoxy]propanohydroxamic acid] | 190 |  | 

More lines, main results first:

Row | IC50 (stromelysin) [nM] | Structure (SMILES) | inhibition at 16 µM (TNFα secretion) [%] | further results
32 | 74000 | O=C(CCCCOc1cccc(-c2ccccc2)c1)NO [Example 18, 5-[3-phenylphenoxy]pentanohydroxamic acid] | 62 | 
33 | 77000 | O=C(CCCCCOc1ccc(-c2ccccc2)cc1)NO [Example 21, 6-[4-phenylphenoxy]hexanohydroxamic acid] |  | 
34 | 150 | C[C@@H](COc1ccc(-c2ccccc2)cc1)C(=O)NO [Example 28, (S)2-methyl-3-(4-phenylphenoxy)propanohydroxamic acid] |  | 
35 | 2100 | O=C(CCSc1ccc(-c2ccccc2)cc1)NO [Example 30, 3-(4-biphenylthio)propanohydroxamic acid] |  | 
36 | 880 | O=C(CSc1ccc(-c2ccccc2)cc1)NO [Example 31, 2-(4-biphenylthio)ethanohydroxamic acid] |  | 
37 | 4600 | O=C(CCNc1ccc(-c2ccccc2)cc1)NO [Example 32, 3-(4-biphenylamino)propanohydroxamic acid] |  | 
38 | 58000 | O=C(CCCc1ccc(-c2ccccc2)cc1)NO [Example 34, 4-(4-biphenyl)butanohydroxamic acid] | 52 | 
39 | 30000 | O=C(CCc1ccc(-c2ccccc2)cc1)NO [Example 37, 3-(4-biphenyl)propanohydroxamic acid] |  | 
40 | 1000 | O=C(CCCCc1ccc(-c2ccccc2)cc1)NO [Example 38, 5-(4-biphenyl)pentanohydroxamic acid] | 65 | 
41 | 2300 | O=C(NO)C(O)COc1ccc(-c2ccccc2)cc1 (stereo not shown) [Example 45, 2-hydroxy-3-[(4-phenyl)phenoxy]propanohydroxamic acid] |  | 
